Read-outs that look alike come from different tables or passages of the source.
Legend:
GCN2 kinase = GCN2 kinase (Homo sapiens, UniProt Q9P2K8); experiment: GCN2 enzyme inhibition assay (Transcreener ADP2 fluorescence polarization); type: biochemical; conditions: 280 μM ATP
Method in brief: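 Inhibition of 4 nM GCN2 was measured with compound up to 8 μM final, ATP 280 μM and (RS)7 peptide 200 μM over a 1 h, 25 °C reaction. ADP FP readout; IC50 and Ki(app) calculated from percent inhibition.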

[1] = molecular target: intracellular GCN2 (phosphorylation of the GCN2 substrate eIF2α) (Homo sapiens, UniProt Q9P2K8); experiment: GCN2 cellular inhibition assay (AlphaScreen SureFire P-eIF2α Ser51, borrelidin-treated U2OS cells); type: cell-based
Method in brief: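 Borrelidin at 10 μM is added to U2OS cells immediately after compound (4-fold dilution series, 40 μM top final) for 1 h at 37 °C. Phosphorylated eIF2α Ser51 in lysates is quantified by AlphaScreen and expressed as percent inhibition against borrelidin-stimulated controls.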

[2] = compounds of Formula II, 4 nM GCN2 kinase
[3] = compounds of Formula II, biomarker assay, phosphorylated eIF2α Ser51 in borrelidin-treated U2OS cells
[4] = Enzyme activity for compounds of Formula IV, Ki(app), 25° C.
[5] = compounds of Formula IV, biomarker assay, phosphorylated eIF2α Ser51 in borrelidin-treated U2OS cells

Chain of GCN2 kinase (Q9P2K8 whole entry): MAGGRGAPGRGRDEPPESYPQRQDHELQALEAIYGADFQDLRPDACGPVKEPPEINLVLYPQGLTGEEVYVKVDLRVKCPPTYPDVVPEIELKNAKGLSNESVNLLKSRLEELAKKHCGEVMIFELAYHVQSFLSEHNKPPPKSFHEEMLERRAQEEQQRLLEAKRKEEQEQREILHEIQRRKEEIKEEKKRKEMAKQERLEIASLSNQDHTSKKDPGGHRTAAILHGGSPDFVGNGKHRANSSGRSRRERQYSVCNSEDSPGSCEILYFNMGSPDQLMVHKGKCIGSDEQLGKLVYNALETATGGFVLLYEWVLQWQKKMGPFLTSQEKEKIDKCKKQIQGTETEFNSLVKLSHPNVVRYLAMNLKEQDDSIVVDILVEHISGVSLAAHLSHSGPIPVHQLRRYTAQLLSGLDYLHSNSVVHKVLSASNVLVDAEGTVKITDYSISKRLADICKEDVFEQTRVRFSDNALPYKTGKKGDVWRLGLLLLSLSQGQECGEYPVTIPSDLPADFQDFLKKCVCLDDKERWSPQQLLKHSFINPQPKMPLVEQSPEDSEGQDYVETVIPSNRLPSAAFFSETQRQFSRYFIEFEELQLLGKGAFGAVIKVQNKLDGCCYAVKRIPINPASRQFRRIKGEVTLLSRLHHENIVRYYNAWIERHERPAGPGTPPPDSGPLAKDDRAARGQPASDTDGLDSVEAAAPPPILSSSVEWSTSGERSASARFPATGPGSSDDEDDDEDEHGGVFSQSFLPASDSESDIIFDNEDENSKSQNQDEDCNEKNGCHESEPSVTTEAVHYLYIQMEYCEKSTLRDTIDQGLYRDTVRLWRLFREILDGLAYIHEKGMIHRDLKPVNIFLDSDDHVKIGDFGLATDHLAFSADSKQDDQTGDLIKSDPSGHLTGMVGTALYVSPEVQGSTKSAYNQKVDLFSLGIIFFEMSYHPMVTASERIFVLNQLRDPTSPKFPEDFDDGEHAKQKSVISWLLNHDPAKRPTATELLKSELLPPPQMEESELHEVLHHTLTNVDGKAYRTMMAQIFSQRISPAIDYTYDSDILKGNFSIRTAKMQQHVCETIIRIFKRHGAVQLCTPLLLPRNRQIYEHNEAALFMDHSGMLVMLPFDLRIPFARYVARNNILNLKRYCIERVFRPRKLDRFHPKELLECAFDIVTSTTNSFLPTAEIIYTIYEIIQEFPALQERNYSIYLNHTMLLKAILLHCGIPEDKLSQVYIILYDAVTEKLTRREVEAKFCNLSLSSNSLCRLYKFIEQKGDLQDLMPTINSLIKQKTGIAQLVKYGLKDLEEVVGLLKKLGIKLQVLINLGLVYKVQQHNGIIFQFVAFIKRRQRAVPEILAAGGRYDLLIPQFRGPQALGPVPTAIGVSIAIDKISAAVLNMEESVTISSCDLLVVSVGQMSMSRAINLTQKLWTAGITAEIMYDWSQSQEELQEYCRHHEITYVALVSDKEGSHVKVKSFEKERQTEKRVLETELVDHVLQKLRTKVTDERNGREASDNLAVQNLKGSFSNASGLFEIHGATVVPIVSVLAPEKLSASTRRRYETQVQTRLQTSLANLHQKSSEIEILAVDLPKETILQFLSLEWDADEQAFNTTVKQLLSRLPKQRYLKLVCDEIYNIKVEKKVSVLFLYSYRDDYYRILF
Chain of intracellular GCN2 (phosphorylation of the GCN2 substrate eIF2α) (Q9P2K8 whole entry): as above

| Structure (SMILES) | Ki (GCN2 kinase; [2]) | IC50 [1, 3] | Ki (GCN2 kinase; [4]) | IC50 [1, 5] | other results |
| --- | --- | --- | --- | --- | --- |
| NS(=O)(=O)N1CCOC2(CN(c3cc(-c4cnc5ccc(C(F)F)nn45)ncn3)C2)C1 [II-285, 2-(6-(6-(Difluoromethyl)imidazo[1,2-b]pyridazin-3-yl)pyrimidin-4-yl)-5-oxa-2,8-diazaspiro[3.5]nonane-8-sulfonamide] | 0.01 to 1 µM | > 5 µM |  |  |  |
| C[C@@H]1CC(N=S(C)(C)=O)CN(c2cc(-c3cnc4ccc(C(F)F)nn34)ncn2)C1 (single isomer, unassigned) [II-541] | < 0.01 µM | < 0.5 µM |  |  |  |
| O=C1CCN(c2ccnc(-c3cnc4cnc(C(F)F)cn34)n2)CCN1 [IV-49, 1-(2-(6-(Difluoromethyl)imidazo[1,2-a]pyrazin-3-yl)pyrimidin-4-yl)-1,4-diazepan-5-one] |  |  | 0.1 to 1 µM | > 5 µM |  |
| FC(F)c1cn2c(-c3nccc(N4CCC(C5CCOCC5)C4)n3)cnc2cn1 (stereo not drawn) [IV-102, 6-(Difluoromethyl)-3-(4-(3-(tetrahydro-2H-pyran-4-yl)pyrrolidin-1-yl)pyrimidin-2-yl)imidazo[1,2-a]pyrazine] |  |  | 0.1 to 1 µM | > 5 µM |  |
| CC1C(CO)CCCN1c1cc(-c2cnc3ccc(C(F)F)nn23)ncn1 (stereo not drawn) [II-373, (1-(6-(6-(Difluoromethyl)imidazo[1,2-b]pyridazin-3-yl)pyrimidin-4-yl)-2-methylpiperidin-3-yl)methanol] | < 0.01 µM | 0.5 to 5 µM |  |  |  |
| CS(=O)(=O)NCC1CCCN(c2cc(-c3cnc4ccc(C(F)F)nn34)cnc2CN)C1 (stereo not drawn) [II-73, N-((1-(2-(Aminomethyl)-5-(6-(difluoromethyl)imidazo[1,2-b]pyridazin-3-yl)pyridin-3-yl)piperidin-3-yl)methyl)methanesulfonamide] | 0.01 to 1 µM | > 5 µM |  |  |  |
| CP(C)(=O)C1CC(c2cn[nH]c2)CN(c2ccnc(-c3cnc4sc(C(F)(F)F)cn34)n2)C1 (racemic) [Compound V-5, 5-[4-[3-Dimethylphosphoryl-5-(1H-pyrazol-4-yl)-1-piperidyl]pyrimidin-2-yl]-2-(trifluoromethyl)imidazo[2,1-b]thiazole] |  |  |  |  | Ki (GCN2 kinase; compounds of Formula V, 4 nM GCN2 kinase): 0.01 to 0.1 µM; IC50 ([1]; compounds of Formula V, U2OS cells, 10 μM borrelidin, 1 h, read-out: GCN2 Biomarker (IC50)): > 5 µM |
| CC(=O)Nc1cccc2c1CCN(c1cc(-c3cnc4ccc(C(F)F)nn34)ncn1)C2 [II-218, N-(2-(6-(6-(Difluoromethyl)imidazo[1,2-b]pyridazin-3-yl)pyrimidin-4-yl)-1,2,3,4-tetrahydroisoquinolin-5-yl)acetamide] | 0.01 to 1 µM | 0.5 to 5 µM |  |  |  |
| CC1CCC(C(N)=O)CN1c1ccnc(-c2cnc3cnc(C(F)(F)F)cn23)n1 (stereo not drawn) [IV-631, 6-Methyl-1-(2-(6-(trifluoromethyl)imidazo[1,2-a]pyrazin-3-yl)pyrimidin-4-yl)piperidine-3-carboxamide] |  |  | 0.01 to 0.1 µM | 0.5 to 5 µM |  |
| O=S(=O)(NCC1CCCN(c2cc(-c3cnc4ccc(C(F)F)nn34)ncn2)C1)C1CC1 (stereo not drawn) [II-262, N-((1-(6-(6-(Difluoromethyl)imidazo[1,2-b]pyridazin-3-yl)pyrimidin-4-yl)piperidin-3-yl)methyl)cyclopropanesulfonamide] | < 0.01 µM | < 0.5 µM |  |  |  |
| CC1C(CS(C)(=N)=O)CCCN1c1cc(-c2cnc3ccc(C(F)F)nn23)ncn1 (stereo not drawn) [II-488, ((1-(6-(6-(Difluoromethyl)imidazo[1,2-b]pyridazin-3-yl)pyrimidin-4-yl)-2-methylpiperidin-3-yl)methyl)(imino)(methyl)-λ^6-sulfanone] | 0.01 to 1 µM | > 5 µM |  |  |  |
| CC1CN(c2cc(-c3cnc4ccc(C(F)(F)F)nn34)ncn2)CC(CNS(C)(=O)=O)C1(F)F (stereo not drawn) [II-294, N-((4,4-Difluoro-5-methyl-1-(6-(6-(trifluoromethyl)imidazo[1,2-b]pyridazin-3-yl)pyrimidin-4-yl)piperidin-3-yl)methyl)methanesulfonamide] | 0.01 to 1 µM | > 5 µM |  |  |  |
| OCCC1CN(c2cc(-c3cnc4ccc(C(F)(F)F)nn34)ncn2)CCO1 (stereo not drawn) [II-500, 2-(4-(6-(6-(Trifluoromethyl)imidazo[1,2-b]pyridazin-3-yl)pyrimidin-4-yl)morpholin-2-yl)ethan-1-ol] | 0.01 to 1 µM | > 5 µM |  |  |  |
| CC1C(CS(C)(=O)=O)OCCN1c1cc(-c2cnc3ccc(C(F)F)nn23)ncn1 (stereo not drawn) [II-426, 4-(6-(6-(Difluoromethyl)imidazo[1,2-b]pyridazin-3-yl)pyrimidin-4-yl)-3-methyl-2-((methylsulfonyl)methyl)morpholine] | 0.01 to 1 µM | 0.5 to 5 µM |  |  |  |
| OC[C@H]1CCCN(c2cc(-c3cnc4ccc(C(F)F)nn34)ncn2)C1 [II-519, (S)-(1-(6-(6-(Difluoromethyl)imidazo[1,2-b]pyridazin-3-yl)pyrimidin-4-yl)piperidin-3-yl)methanol] | 0.01 to 1 µM | 0.5 to 5 µM |  |  |  |
| CC1C(CS(C)(=N)=O)OCCN1c1cc(-c2cnc3ccc(C(F)F)nn23)ncn1 (stereo not drawn) [II-425, ((4-(6-(6-(Difluoromethyl)imidazo[1,2-b]pyridazin-3-yl)pyrimidin-4-yl)-3-methylmorpholin-2-yl)methyl)(imino)(methyl)-λ^6-sulfanone] | 0.01 to 1 µM | 0.5 to 5 µM |  |  |  |
| CC1CN(c2ccnc(-c3cnc4cnc(Br)cn34)n2)C(C)C(c2c[nH]cn2)N1 (single isomer, unassigned) [IV-376, 3-(4-(3-(1H-Imidazol-4-yl)-2,5-dimethylpiperazin-1-yl)pyrimidin-2-yl)-6-bromoimidazo[1,2-a]pyrazine] |  |  | < 0.01 µM | 0.5 to 5 µM |  |
| CS(C)(=O)=NC1CCCN(c2cc(-c3cnc4ccc(C(F)F)nn34)ncn2)C1 (single isomer, unassigned) [II-503, ((1-(6-(6-(Difluoromethyl)imidazo[1,2-b]pyridazin-3-yl)pyrimidin-4-yl)piperidin-3-yl)imino)dimethyl-λ^6-sulfanone] | 0.01 to 1 µM | 0.5 to 5 µM |  |  |  |
| CS(C)(=O)=NC1CCCN(c2cc(-c3cnc4ccc(C(F)F)nn34)ncn2)C1C(F)F (stereo not drawn) [II-701, [2-(Difluoromethyl)-1-[6-[6-(difluoromethyl)imidazo[1,2-b]pyridazin-3-yl]pyrimidin-4-yl]-3-piperidyl]imino-dimethyl-λ^6-sulfanone] | 0.01 to 1 µM | > 5 µM |  |  |  |
| CC1CN(c2cc(-c3cnc4ccc(C(F)F)nn34)ccn2)CC(CNS(C)(=O)=O)C1(F)F (stereo not drawn) [II-78, N-((1-(4-(6-(Difluoromethyl)imidazo[1,2-b]pyridazin-3-yl)pyridin-2-yl)-4,4-difluoro-5-methylpiperidin-3-yl)methyl)methanesulfonamide] | < 0.01 µM | < 0.5 µM |  |  |  |
| FC(F)(F)c1cn2c(-c3nccc(N4CCCC(C5CNC5)C4)n3)cnc2cn1 (stereo not drawn) [IV-696, 3-(4-(3-(Azetidin-3-yl)piperidin-1-yl)pyrimidin-2-yl)-6-(trifluoromethyl)imidazo[1,2-a]pyrazine] |  |  | 0.1 to 1 µM | > 5 µM |  |
| CS(=O)(=O)C1CCCN(c2cc(-c3cnc4ccc(C(F)F)nn34)ncn2)C1 (stereo not drawn) [II-19, 6-(Difluoromethyl)-3-(6-(3-(methylsulfonyl)piperidin-1-yl)pyrimidin-4-yl)imidazo[1,2-b]pyridazine] | 0.01 to 1 µM | 0.5 to 5 µM |  |  |  |
| CP(C)(=O)C1CC(c2cn[nH]c2)CN(c2ccnc(-c3cnc4cnc(C(F)(F)F)cn34)n2)C1 (stereo not drawn) [IV-591, (5-(1H-Pyrazol-4-yl)-1-(2-(6-(trifluoromethyl)imidazo[1,2-a]pyrazin-3-yl)pyrimidin-4-yl)piperidin-3-yl)dimethylphosphine oxide] |  |  | 0.1 to 1 µM | > 5 µM |  |
| CC1CC(c2cn[nH]c2)C(C)N(c2ccnc(-c3cnc4cnc(C(F)(F)F)cn34)n2)C1 (single isomer, unassigned) [IV-311] |  |  | < 0.01 µM | < 0.5 µM |  |
| FC(F)(F)c1cn2c(-c3nccc(-c4cnn(C5CCOC5)c4)n3)cnc2cn1 (stereo not drawn) [IV-449, 3-(4-(1-(Tetrahydrofuran-3-yl)-1H-pyrazol-4-yl)pyrimidin-2-yl)-6-(trifluoromethyl)imidazo[1,2-a]pyrazine] |  |  | 0.1 to 1 µM | > 5 µM |  |
| CN1CCN(c2cc(-c3cnc4ccc(C(F)F)nn34)ncn2)CC12CN(S(C)(=O)=O)C2 [II-452, 8-(6-(6-(Difluoromethyl)imidazo[1,2-b]pyridazin-3-yl)pyrimidin-4-yl)-5-methyl-2-(methylsulfonyl)-2,5,8-triazaspiro[3.5]nonane] | 0.01 to 1 µM | 0.5 to 5 µM |  |  |  |
| CC(=O)NC1CCN(c2cc(-c3cnc4ccc(-c5cccnc5)nn34)ccn2)CC1 [II-735, N-(1-(4-(6-(pyridin-3-yl)imidazo[1,2-b]pyridazin-3-yl)pyridin-2-yl)piperidin-4-yl)acetamide] | > 1 µM | > 5 µM |  |  |  |
| CN1CCN(c2cc(-c3cnc4ccc(C(F)F)nn34)ncn2)C[C@H]1CNS(C)(=O)=O [II-410] | 0.01 to 1 µM | 0.5 to 5 µM |  |  |  |
| CC(=O)N1CCN(c2cncc(-c3cnc4cnc(C(N)=O)cn34)n2)CC1 [IV-183, 3-(6-(4-Acetylpiperazin-1-yl)pyrazin-2-yl)imidazo[1,2-a]pyrazine-6-carboxamide] |  |  | 0.1 to 1 µM | > 5 µM |  |
| CS(=O)(=O)NCC1CN(c2cc(-c3cnc4ccc(C(F)F)nn34)ncn2)CCC1(F)F (single isomer, unassigned) [II-2, N-((1-(6-(6-(Difluoromethyl)imidazo[1,2-b]pyridazin-3-yl)pyrimidin-4-yl)-4,4-difluoropiperidin-3-yl)methyl)methanesulfonamide] | < 0.01 µM | 0.5 to 5 µM |  |  |  |

Source: patent US10988477B2 (Merck Patent GmbH, priority 2018, dated 2021)
